Data as given in patent US20040180941A1, “3-(1-[3-(1,3-Benzothiazol-6-yl)propylcarbamoyl]cycloalkyl)propanoic acid derivatives as NEP inhibitors” (Pfizer Inc, priority 2003, published 2004).

Key:
[1] = target: T1, Recombinant SEP (soluble secreted endopeptidase) (Homo sapiens, UniProt Q495T6); assay: Assay of SEP peptidase activity (fluorogenic peptide substrate), IC50 determination; assay type: biochemical; settings: ratio of SEP to NEP inhibition
T1 construct: made in house
T1 sequence (Q495T6 75-779 limits assumed): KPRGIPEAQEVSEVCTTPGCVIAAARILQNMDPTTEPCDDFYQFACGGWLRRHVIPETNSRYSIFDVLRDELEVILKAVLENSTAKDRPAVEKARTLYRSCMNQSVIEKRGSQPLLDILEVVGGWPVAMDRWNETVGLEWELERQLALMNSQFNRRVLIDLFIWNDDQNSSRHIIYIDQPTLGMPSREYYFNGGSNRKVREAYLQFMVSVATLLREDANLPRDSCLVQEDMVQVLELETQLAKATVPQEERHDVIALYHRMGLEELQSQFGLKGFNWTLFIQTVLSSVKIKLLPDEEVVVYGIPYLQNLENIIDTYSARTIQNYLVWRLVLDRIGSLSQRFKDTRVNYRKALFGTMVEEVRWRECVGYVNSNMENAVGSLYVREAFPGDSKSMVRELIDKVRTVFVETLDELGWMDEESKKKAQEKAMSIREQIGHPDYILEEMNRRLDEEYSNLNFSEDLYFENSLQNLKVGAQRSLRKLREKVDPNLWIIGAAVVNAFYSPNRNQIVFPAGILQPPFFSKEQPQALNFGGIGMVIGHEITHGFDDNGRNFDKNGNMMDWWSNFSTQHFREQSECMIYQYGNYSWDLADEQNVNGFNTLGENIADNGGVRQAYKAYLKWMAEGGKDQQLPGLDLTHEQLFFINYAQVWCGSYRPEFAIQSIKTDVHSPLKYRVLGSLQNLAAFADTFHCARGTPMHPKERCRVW
Method: Recombinant SEP enzyme is produced using one of two alternative methods:
Method 1: A culture of Chinese Hamster Ovary (CHO) cells is transfected with the plasmid NCIMB deposit number 41110 using the lipofectamine method as described in the lipofectamine reagent protocol (Invitrogen Ltd, Paisley, UK). The cell media is harvested at 24 or 48 hours post transfection, and cleared of cell debris by centrifugation at 3000 g for 5 min. The media is then dialyzed overnight at 4° C. against 50 mM HEPES pH7.4/10% glycerol, using a “slide a lyser” from Pierce and Warner, Chester UK. The dialyzed sample is then frozen in aliquots and stored under liquid nitrogen. […]
The peptidase activity of SEP or NEP is measured by monitoring its ability to proteolyse the synthetic peptide substrate Rhodamine green-Gly-Gly-dPhe-Leu-Arg-Arg-Val-Cys(QSY7)-βAla-NH2: […]
(§1) In a black 384 well microtitre plate, 15 μl of enzyme solution is added to 15 μl of 4% DMSO solution. […] Following incubation a fluorescence measurement is taken (Ex485/Em538). BMG galaxy fluorescence reader (BMG Lab technologies, Offenberg, Germany).
(§2) The proteolytic activity of the enzyme corresponds to the fluorescence of the sample minus the fluorescence of the non-specific background blank.
(§3) A fluorescence measurement taken from 60 μl of product in a well on an identical microtitre plate may be taken. […]

[2] = target: T2, NEP (neutral endopeptidase EC.3.4.24.11), native enzyme isolated from kidneys (Homo sapiens, UniProt P08473); assay: Assay of NEP peptidase activity (fluorogenic peptide substrate), IC50 determination; assay type: biochemical; settings: read-out: activity against NEP expressed as an IC50
T2 construct: NEP is isolated from kidneys following the method described by Kenny and Booth; from tissue
Method: Production of Native NEP Enzyme:
NEP is isolated from kidneys following the method described by Kenny and Booth (Booth, A. G. & Kenny, A. J. (1974) Biochem. J. 142, 575-581).
Assay of SEP or NEP Peptidase Activity
The peptidase activity of SEP or NEP is measured by monitoring its ability to proteolyse the synthetic peptide substrate Rhodamine green-Gly-Gly-dPhe-Leu-Arg-Arg-Val-Cys(QSY7)-βAla-NH2:
Reagents for the assay are first prepared as follows:
A substrate solution is made up by diluting a 2 mM/100% DMSO Rhodamine green-Gly-Gly-dPhe-Leu-Arg-Arg-Val-Cys(QSY7)-βAla-NH2 stock solution in 50 mM HEPES buffer pH7.4 (Sigma, UK) at a concentration of 2 μM.
An aliquot of SEP or NEP enzyme described above is thawed then diluted in 50 mM HEPES, pH7.4 containing 1 EDTA free protease inhibitor cocktail tablet (Roche Diagnostics, UK) per 25 ml. […]
as §1, §2, §3

T2 sequence (P08473 whole entry): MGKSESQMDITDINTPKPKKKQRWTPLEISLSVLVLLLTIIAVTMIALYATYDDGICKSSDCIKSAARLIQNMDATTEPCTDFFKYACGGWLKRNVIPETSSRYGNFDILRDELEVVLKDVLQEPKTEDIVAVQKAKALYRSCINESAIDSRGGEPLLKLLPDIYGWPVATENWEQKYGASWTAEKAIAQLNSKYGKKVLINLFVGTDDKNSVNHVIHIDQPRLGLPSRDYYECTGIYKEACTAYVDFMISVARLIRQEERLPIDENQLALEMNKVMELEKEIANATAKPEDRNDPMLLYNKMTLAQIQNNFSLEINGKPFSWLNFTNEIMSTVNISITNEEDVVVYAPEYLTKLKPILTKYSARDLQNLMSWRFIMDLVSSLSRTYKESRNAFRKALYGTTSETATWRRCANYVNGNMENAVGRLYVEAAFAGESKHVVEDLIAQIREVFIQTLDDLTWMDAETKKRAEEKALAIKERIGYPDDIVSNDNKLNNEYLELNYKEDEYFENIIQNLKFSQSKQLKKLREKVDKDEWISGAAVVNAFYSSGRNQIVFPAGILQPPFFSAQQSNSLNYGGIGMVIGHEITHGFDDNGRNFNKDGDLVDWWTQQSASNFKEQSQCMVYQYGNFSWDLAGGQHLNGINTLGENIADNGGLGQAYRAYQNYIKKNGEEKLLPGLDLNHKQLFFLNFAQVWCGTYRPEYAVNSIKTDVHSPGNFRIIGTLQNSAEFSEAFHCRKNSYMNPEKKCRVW

Row | selectivity for NEP over SEP [1] | IC50 [2] | melting point | SMILES
1 | 1900 fold | 1 nM | 105 to 106 °C | Cc1nc2ccc(CCCNC(=O)C3(C[C@@H](C)C(=O)O)CCCC3)cc2s1 [Example 1, (R)-2-Methyl-3-(1-{[3-(2-methyl-1,3-benzothiazol-6-yl)propyl]carbamoyl}cyclopentyl)propanoic acid]
2 |  |  | 127.5 to 129.5 °C | CCc1nc2ccc(CCCNC(=O)C3(CCC(=O)O)CCCC3)cc2s1 [Example 2, 3-(1-{[3-(2-ethyl-1,3-benzothiazol-6-yl)propyl]carbamoyl}cyclopentyl)propanoic acid]
